Common to all, as to test: ≥ marks a high value that may be exact or a test limit, other limits are often not marked, values filed in µg/mL are converted to µM
Assay [1] concerns Klebsiella pneumoniae ATCC 10031.
The test system of assay [2] is Pseudomonas aeruginosa ATCC 27853.
In assay [3] the test system is Staphylococcus aureus ATCC 6538P.
For assay [4], the system named is Shigella dysenteriae ATCC 9752.
Assay [5] concerns Micrococcus luteus ATCC 10240.
The test system of assay [6] is Salmonella enterica subsp. enterica serovar Typhimurium ATCC 14028.
For assay [7], the system named is Bacillus subtilis ATCC 6633.
The test system of assay [8] is Staphylococcus epidermidis ATCC 12228.
The test system of assay [9] is Escherichia coli ATCC 25922.
A further assay relates to Escherichia coli K-12.
Assay [10] relates to Staphylococcus aureus USA 300.
Assay [11] has as its system Pseudomonas aeruginosa PAO1.
Another assay deals with Bacillus subtilis 168.

We go through 5 compounds from DBAASP.

Structures are written as SMILES. ≈ marks a conversion by molar mass, not a printed value. Bounds are passed on as bounds.

What is called MIC is the lowest concentration found to suppress growth.

With `CC(C)C[C@H](NC(=O)[C@H](Cc1c[nH]c2ccccc12)NC(=O)[C@H](Cc1c[nH]c2ccccc12)NC(=O)[C@H](CC(C)C)NC(=O)[C@@H](N)Cc1ccccc1)C(=O)N[C@@H](Cc1ccccc1)C(=O)N[C@@H](CCCCN)C(=O)N[C@@H](Cc1c[nH]c2ccccc12)C(=O)N[C@@H](C)C(=O)N[C@@H](Cc1c[nH]c2ccccc12)C(=O)N[C@@H](CCCCN)C(N)=O` [FLWWLFKWAWK], the MIC in assay [1] is at least 124 µM; in assay [2] it was over 124 µM; in [3] it was 3.91 µM (≈ 6.3 µg/mL); in assay [4], at least 124 µM; in assay [5], 1.92 µM (≈ 3.1 µg/mL); in [6], over 124 µM. Further, the MIC in assay [7] was 1.92 µM (≈ 3.1 µg/mL); in [8], 1.92 µM (≈ 3.1 µg/mL); in [9], over 124 µM.

Take `CC[C@H](C)[C@H](NC(=O)[C@H](C)NC(=O)[C@H](CCC(N)=O)NC(=O)[C@@H](NC(=O)[C@@H](NC(=O)[C@H](CCCN=C(N)N)NC(=O)[C@H](CCCCN)NC(=O)[C@H](Cc1ccccc1)NC(=O)CN)[C@@H](C)CC)C(C)C)C(=O)N[C@@H](CCCCN)C(=O)N[C@@H](CC(=O)O)C(=O)N[C@@H](Cc1ccccc1)C(=O)N[C@@H](CC(C)C)C(=O)N[C@@H](CCCN=C(N)N)C(=O)N[C@@H](CC(N)=O)C(=O)N[C@@H](CC(C)C)C(=O)N[C@H](C(N)=O)C(C)C` [GFKRIVQAIKDFLRNLV]: the MIC with Escherichia coli K-12 is at least 60 µM.

For `CC[C@H](C)[C@H](NC(=O)[C@@H](NC(=O)[C@H](CCCCN)NC(=O)CNC(=O)[C@@H](NC(=O)[C@@H](NC(=O)[C@H](CO)NC(=O)[C@@H](NC(=O)[C@@H](NC(=O)[C@@H]1CCCN1C(=O)[C@@H](NC(=O)[C@@H](NC(=O)CN)[C@@H](C)CC)[C@@H](C)CC)[C@@H](C)CC)[C@@H](C)CC)[C@@H](C)CC)[C@@H](C)CC)[C@@H](C)CC)C(N)=O` [GIIPIISIIGKII], the minimum inhibitory concentration (MIC) in the assay with Escherichia coli K-12 is at least 34 µM; in [10], at least 34 µM; in assay [11], over 30 µM; in the assay on Bacillus subtilis 168 it was 30 µM (≈ 40.5 µg/mL).

For the compound `CC(C)C[C@H](NC(=O)[C@H](CC(C)C)NC(=O)[C@H](CCCCN)NC(=O)[C@H](CC(C)C)NC(=O)[C@H](CC(C)C)NC(=O)[C@H](Cc1c[nH]c2ccccc12)NC(=O)[C@H](CCCCN)NC(=O)[C@H](CC(C)C)NC(=O)[C@H](CC(C)C)NC(=O)[C@H](CCCCN)NC(=O)[C@H](CCCCN)NC(=O)[C@@H](N)CC(C)C)C(=O)N[C@@H](CCCCN)C(N)=O` [LKKLLKWLLKLLK], the MIC is at least 122 µM in [1]; over 122 µM in [2]; 7.63 µM (≈ 12.5 µg/mL) in assay [3]; at least 122 µM in [4]; 1.89 µM (≈ 3.1 µg/mL) in [5]; over 122 µM in [6]. Further, the MIC in [7] was 1.89 µM (≈ 3.1 µg/mL); in assay [8] it was 7.63 µM (≈ 12.5 µg/mL); in assay [9], over 122 µM.

On to `CC(C)C[C@H](NC(=O)[C@H](CC(C)C)NC(=O)[C@H](CCCCN)NC(=O)[C@H](CC(C)C)NC(=O)[C@H](CC(C)C)NC(=O)[C@H](Cc1c[nH]c2ccccc12)NC(=O)[C@H](CCCCN)NC(=O)[C@H](CC(C)C)NC(=O)[C@H](CC(C)C)NC(=O)[C@H](CCCCN)NC(=O)[C@H](CC(C)C)NC(=O)[C@@H](N)CC(C)C)C(=O)N[C@@H](CCCCN)C(N)=O` [LLKLLKWLLKLLK], for which the MIC was at least 123 µM in assay [1]; over 123 µM in assay [2]; 15.4 µM (≈ 25 µg/mL) in assay [3]; at least 123 µM in assay [4]; 3.88 µM (≈ 6.3 µg/mL) in assay [5]; over 123 µM in assay [6]. Besides, the MIC in assay [7] is 3.88 µM (≈ 6.3 µg/mL); in [8], 30.8 µM (≈ 50 µg/mL); in [9], over 123 µM.
